One block for each compound: values may come before it.
Columns and labels:
Elastase [1] = target: T1, Elastase (Homo sapiens, UniProt P08246); assay: In vitro assay of elastase with chromogenic substrate N-MeOSuc-Ala-Ala-Pro-Val-p-nitroanilide, no esterase; format: biochemical; conditions: for rate of hydrolysis of the substrate (no inhibitor or prodrug added = 100%): without esterase; for Ki: parent (liberated) drug itself, read-out: Ki measured / determined independently
T1 construct: Elastase is isolated from human sputum; from tissue; host or cells: human sputum
T1 sequence (P08246 30-267): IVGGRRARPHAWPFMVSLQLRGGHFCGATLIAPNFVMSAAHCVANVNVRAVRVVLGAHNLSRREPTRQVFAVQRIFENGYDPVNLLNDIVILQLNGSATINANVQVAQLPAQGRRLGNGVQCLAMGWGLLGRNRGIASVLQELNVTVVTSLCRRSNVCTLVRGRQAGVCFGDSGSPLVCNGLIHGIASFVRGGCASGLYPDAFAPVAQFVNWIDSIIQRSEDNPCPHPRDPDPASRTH
Protocol: (§1) Elastase was assayed in vitro using the chromogenic substrate N-MeOSuc-Ala-Ala-Pro-Val-p-nitroanilide ([S]=0.20 mM; Km=0.16 mM), available commercially. The assay techniques are similar to those described by Mehdi, et al., Biochemical and Biophysical Research Communications, 166, 595 (1990). The assay mixture consists of partially purified elastase and substrate (0.2 mM) in 0.1 M HEPES (pH 7.5), 0.5 M NaCl, 10% DMSO and 0.1% Brij 35. The reaction (1 or 2 mL, in a plastic cuvette) is maintained at 37° C. and the hydrolysis of the substrate is followed in the presence of MDL 104,569 and 5 units/mL of porcine liver esterase (Sigma Chemical Co., cat. no. E-3128). Elastase is isolated from human sputum, although recently it has become commercially available. The rate of hydrolysis of the substrate with no inhibitor or prodrug added is assigned 100%. In the presence of 1 μM MDL 104,569, a rate of 81% was obtained; when esterase ([…], Sigma Chemical Co.) was also present, the rate decreased to 24%.
(§2) Elastase was assayed in vitro in the presence of MDL 105,565 using the techniques and procedures described in Example 18. With MDL 105,565, at a concentration of 10 nM, a rate of 99% was obtained; when esterase was added, this rate was 76%. At a concentration of 45 nM, the rates were 94% (without esterase) and 37% (with esterase).

Elastase [2] = target: T1, Elastase; assay: In vitro assay of elastase in the presence of the prodrug and porcine liver esterase; format: biochemical
Protocol: as §1, §2

- rate of hydrolysis of the substrate (no inhibitor or prodrug added = 100%) (Elastase [1]; 1 μM compound, substrate 0.2 mM, pH 7.5, 37° C.): 81%
- rate of hydrolysis of the substrate (no inhibitor or prodrug added = 100%) (Elastase [2]; 1 μM compound, esterase also present): 24%
Structure (SMILES): COC(=O)CCC(=O)N[C@@H](C)C(=O)N[C@@H](C)C(=O)N1CCC[C@H]1C(=O)NC(=C(OC(C)=O)C(=O)OC)C(C)C (mixture of isomers) [MDL 104,569, L-Prolinamide, N-(4-methoxy-1,4-dioxobutyl)-L-alanyl-L-alanyl-N-[2-(acetyloxy)-3-methoxy-1-(1-methylethyl)-3-oxo-1-propenyl]-, (E)- and (Z)-mixture]

- rate of hydrolysis of the substrate (no inhibitor or prodrug added = 100%) (Elastase [1]; 10 nM compound): 99%
- rate of hydrolysis of the substrate (no inhibitor or prodrug added = 100%) (Elastase [1]; 45 nM compound): 94%
- rate of hydrolysis of the substrate (no inhibitor or prodrug added = 100%) (Elastase [2]; 10 nM compound, esterase added): 76%
- rate of hydrolysis of the substrate (no inhibitor or prodrug added = 100%) (Elastase [2]; 45 nM compound, with esterase): 37%
Structure (SMILES): COC(=O)/C(OC(C)=O)=C(\NC(=O)[C@@H]1CCCN1C(=O)[C@@H](NC(=O)c1ccc(C(=O)NS(=O)(=O)c2ccc(Cl)cc2)cc1)C(C)C)C(C)C [MDL 105,565, L-Prolinamide, N-[4-[[[(4-chlorophenyl)sulfonyl]amino]carbonyl]benzoyl]-L-valyl-N-[2-(acetyloxy)-3-methoxy-1-(1-methylethyl)-3-oxo-1-propenyl]-, (E)]

- Ki (Elastase [1]): 0.002 µM
- Ki (Elastase [2]; drug liberated from MDL 105,565 by esterase in the assay, read-out: Ki of the liberated drug, calculated): 0.013 µM
Structure (SMILES): COC(=O)C(=O)C(NC(=O)C1CCCN1C(=O)C(NC(=O)c1ccc(C(=O)NS(=O)(=O)c2ccc(Cl)cc2)cc1)C(C)C)C(C)C (stereo not drawn) [liberated drug, reference compound]

- Ki (Elastase [1]): 0.2 µM
Structure (SMILES): COC(=O)CCC(=O)NC(C)C(=O)NC(C)C(=O)N1CCCC1C(=O)NC(C(=O)C(=O)OC)C(C)C (stereo not drawn) [parent drug, MeOSuc-Ala-Ala-Pro-Val-CO2 CH3, reference compound]
